For the assay, the system named is Vaccinia virus. Briefly: Minimum inhibitory concentration required to reduce vaccinia virus-induced cytopathogenicity in primary rabbit kidney cell cultures. The class given is functional. To be noted: Orthopoxvirus vaccinia.

Values after ≈ are worked out from the molar mass of the structure shown.

Compound `O=c1[nH]c(=O)n([C@H]2C[C@H](O)[C@@H](CO)O2)cc1/C=C\Br` yielded an MIC of 4 µg/mL (≈ 12 µM).
To `O=c1[nH]c(=O)n([C@H]2C[C@H](O)[C@@H](CO)O2)cc1I` [IDOXURIDINE] belongs 0.1 µg/mL (≈ 0.282 µM).
To `O=c1[nH]c(=O)n([C@H]2C[C@H](O)[C@@H](CO)O2)cc1/C=C/Br` [BRIVUDINE] belongs 4 µg/mL (≈ 12 µM).

For the origin of these results see ChEMBL document CHEMBL1121647, “Synthesis and antiviral properties of (Z)-5-(2-bromovinyl)-2'-deoxyuridine” (1981).
